Experimental findings from patent US20220249447A1, “CF3-, OCF3-, SCF3-, and SF5-Containing Antibacterial Agents” (Purdue Research Foundation, priority 2019, published 2022) are described below.

Values after ≈ are worked out from the molar mass of the structure shown.

The test system of assay [1] is L. monocytogenes ATCC 19115. As to the kind of experiment: MIC, broth microdilution, L. monocytogenes ATCC 19115. The note with it: Listeria monocytogenes, ATCC19115. It is filed as cell-based. As to the method: (§1) Bacteria were cultured in cation-adjusted Mueller Hinton Broth (for strains in Tables 1-3) or Brain Heart Infusion broth (for Enterococcus faecium) or Tryptic Soy Broth (all other bacteria) in a 96-well plate at 37° C. for at least 20 hours. The MIC was classified as the lowest concentration where no visual growth of bacteria was observed. The minimum bactericidal concentration (MBC) was tested by spotting 4 μL from wells with no growth onto Tryptic Soy Agar (TSA) plates. Plates were incubated at 37° C. for at least 18 hours before recording the MBC.

A further assay relates to E. faecalis ATCC 29212. As to the kind of experiment: MIC, broth microdilution, E. faecalis ATCC 29212. The note with it: Enterococcus faecalis, ATCC29212. The class given is cell-based. As to the method:
as §1

A further assay concerns S. aureus. As to the kind of experiment: MIC, broth microdilution, S. aureus. The class given is cell-based. The conditions noted are these: Staphylococcus aureus. In outline:
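Strains were grown with compound in broth at 37° C for no less than 20 hours. The medium was cation-adjusted Mueller Hinton, Tryptic Soy or, for Enterococcus faecium, Brain Heart Infusion. The endpoint was the lowest concentration giving no visible growth.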

Assay [2] concerns C. difficile ATCC BAA 1801. As to the kind of experiment: MIC against C. difficile ATCC BAA 1801. It is filed as cell-based. The note with it: Clostridioides difficile, BAA1801; read-out: MIC C. difficile ATCC BAA 1801. As to the method: as §1
In assay [3] the test system is C. difficile NR-32891 (P13). The experiment in a line: MIC against C. difficile NR-32891 (P13). It is filed as cell-based. The conditions noted are these: Clostridioides difficile; read-out: MIC C. difficile NR-32891 (P13). As to the method: as §1
Assay [4] deals with C. difficile NR-13432 (isolate 6). As to the kind of experiment: MIC against C. difficile NR-13432 (isolate 6). The note with it: Clostridioides difficile; read-out: MIC C. difficile NR-13432 (isolate 6). It is filed as cell-based. On the procedure:
as §1

Assay [5] has as its system C. difficile NR-32895 (P19). As to the kind of experiment: MIC against C. difficile NR-32895 (P19). It is filed as cell-based. The conditions noted are these: Clostridioides difficile; read-out: MIC C. difficile NR-32895 (P19). On the procedure: as §1
Assay [6] concerns C. difficile NR-13435 (isolate 9). As to the kind of experiment: MIC against C. difficile NR-13435 (isolate 9). The class given is cell-based. The note with it: Clostridioides difficile; read-out: MIC C. difficile NR-13435 (isolate 9). On the procedure: as §1
Another assay has as its system VRE ATCC 51575. As to the kind of experiment: MIC, broth microdilution, VRE ATCC 51575. It is filed as cell-based. The note with it: Enterococcus. On the procedure:
as §1

Another assay relates to MRSA ATCC 33592. As to the kind of experiment: MIC, broth microdilution, MRSA ATCC 33592. The class given is cell-based, methicillin-resistant S. aureus. The conditions noted are these: Staphylococcus aureus. In outline:
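MRSA was grown in cation-adjusted Mueller Hinton Broth at 37° C for at least 20 h. MIC was taken as the lowest concentration with no visible growth.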

In the next assay the test system is C. difficile ATCC 43255. The experiment in a line: MIC against C. difficile ATCC 43255. The conditions noted are these: Clostridioides difficile, ATCC43255; read-out: MIC C. difficile ATCC 43255. The class given is cell-based. On the procedure: as §1
In assay [7] the test system is C. difficile NR-32904 (P30). The experiment in a line: MIC against C. difficile NR-32904 (P30). It is filed as cell-based. The conditions noted are these: Clostridioides difficile; read-out: MIC C. difficile NR-32904 (P30). As to the method:
as §1

The test system of a further assay is MRSA USA300 cells. As to the kind of experiment: Time-kill assay. The class given is cell-based. The conditions noted are these: for Δlog2 CFU/mL: MRSA USA300, 3× MIC or 6× MIC, up to 24 hours. As to the method: The time-kill analysis was performed as previously described^29. […] Aliquots (100 μL) were collected from each treatment after 0, 2, 4, 8, 12, and 24 hours of incubation at 37° C. and subsequently serially diluted in phosphate-buffered saline (PBS). Bacteria were then transferred to TSA plates and incubated at 37° C. for 18-20 hours before viable CFU/mL was determined (see FIG. 2).

Assay [8] concerns C. difficile NR-32883 (P2). The experiment in a line: MIC against C. difficile NR-32883 (P2). It is filed as cell-based. The note with it: Clostridioides difficile; read-out: MIC C. difficile NR-32883 (P2). As to the method: as §1
For assay [9], the system named is Neisseria gonorrhea strain 181. The experiment in a line: MIC against Neisseria gonorrhea strain 181. It is filed as cell-based. On the procedure:
as §1

For the molecule `O=C(Nc1nnc(-c2cccs2)o1)c1ccc(OC(F)(F)F)cc1` [HSGN-145, N-(5-(thiophen-2-yl)-1,3,4-oxadiazol-2-yl)-4-(trifluoromethoxy)benzamide], the minimum inhibitory concentration (MIC) in assay [1] was 8 µg/mL (≈ 22.5 µM); against E. faecalis ATCC 29212 it was greater than 8 µg/mL; against S. aureus, 1 µg/mL (≈ 2.81 µM); in assay [2], 0.5 µg/mL (≈ 1.41 µM); in [3] it was 2 µg/mL (≈ 5.63 µM); in [4], 0.5 µg/mL (≈ 1.41 µM). Moreover, the MIC in [5] was 1 µg/mL (≈ 2.81 µM); in [6] it was 0.5 µg/mL (≈ 1.41 µM); against VRE ATCC 51575 it was 8 µg/mL (≈ 22.5 µM); in the assay on MRSA ATCC 33592, 1 µg/mL (≈ 2.81 µM); in the assay with C. difficile ATCC 43255, 0.5 µg/mL (≈ 1.41 µM); in [7] it was 1 µg/mL (≈ 2.81 µM). The MIC in [8] stood at 1 µg/mL (≈ 2.81 µM). The Bactericidal/Bacteriostatic result with MRSA USA300 cells is “Bacteriostatic”. Moreover, in the assay with MRSA USA300 cells, the “Δlog2 CFU/mL” value is 0.69.

With `O=C(Nc1nnc(-c2cccc(F)c2)o1)c1ccc(SC(F)(F)F)cc1` [HSGN-205, N-(5-(3-fluorophenyl)-1,3,4-oxadiazol-2-yl)-4-((trifluoromethyl)thio)benzamide], the MIC was determined as 1 µg/mL (≈ 2.61 µM) in assay [1]; 2 µg/mL (≈ 5.22 µM) in the assay with E. faecalis ATCC 29212; 0.25 µg/mL (≈ 0.652 µM) in [9]; 0.5 µg/mL (≈ 1.3 µM) with S. aureus; 0.03 µg/mL (≈ 0.0783 µM) in assay [2]; 0.03 µg/mL (≈ 0.0783 µM) in [3]. In addition, the minimal inhibitory concentration (MIC) in assay [4] stood at 0.03 µg/mL (≈ 0.0783 µM); in assay [5], 0.007 µg/mL (≈ 0.0183 µM); in [6], 0.007 µg/mL (≈ 0.0183 µM); against VRE ATCC 51575 it was 4 µg/mL (≈ 10.4 µM); against MRSA ATCC 33592, 0.25 µg/mL (≈ 0.652 µM); in the assay on C. difficile ATCC 43255, 0.003 µg/mL (≈ 0.00783 µM). Moreover, the values for the MIC in assay [7] and in assay [8] were 0.015 µg/mL (≈ 0.0391 µM) and 0.003 µg/mL (≈ 0.00783 µM), respectively.

With `O=C(Nc1nnc(-c2cccs2)o1)c1ccc(S(F)(F)(F)(F)F)cc1` [HSGN-144, 4-(pentafluoro-sulfanyl)-N-(5-(thiophen-2-yl)-1,3,4-oxadiazol-2-yl)benzamide], the MIC is 1 µg/mL (≈ 2.52 µM) in assay [1]; 2 µg/mL (≈ 5.03 µM) in the assay with E. faecalis ATCC 29212; 0.25 µg/mL (≈ 0.629 µM) in the assay on S. aureus; 0.03 µg/mL (≈ 0.0755 µM) in assay [2]; 0.125 µg/mL (≈ 0.315 µM) in assay [3]; 0.015 µg/mL (≈ 0.0378 µM) in assay [4]. The MIC in assay [5] was 0.06 µg/mL (≈ 0.151 µM); in [6] it was 0.015 µg/mL (≈ 0.0378 µM); in the assay with VRE ATCC 51575, 2 µg/mL (≈ 5.03 µM); against MRSA ATCC 33592, 0.5 µg/mL (≈ 1.26 µM); in the assay with C. difficile ATCC 43255, 0.125 µg/mL (≈ 0.315 µM); in [7], 0.125 µg/mL (≈ 0.315 µM). For the same molecule, in assay [8], the MIC is 0.003 µg/mL (≈ 0.00755 µM). For the same molecule, the Bactericidal/Bacteriostatic entry in the assay with MRSA USA300 cells was “Bactericidal”. The “Δlog2 CFU/mL” value in the assay with MRSA USA300 cells came to 3.96.

Consider `O=C(Nc1nnc(-c2cccc(Cl)c2)o1)c1ccc(SC(F)(F)F)cc1` [HSGN-204, N-(5-(3-chlorophenyl)-1,3,4-oxadiazol-2-yl)-4-((trifluoromethyl)thio)benzamide], for which the minimum inhibitory concentration (MIC) in assay [1] came to 0.125 µg/mL (≈ 0.313 µM); against E. faecalis ATCC 29212 it was 0.25 µg/mL (≈ 0.625 µM); in [9], 0.25 µg/mL (≈ 0.625 µM); in the assay with S. aureus, 0.125 µg/mL (≈ 0.313 µM); in [2] it was 0.03 µg/mL (≈ 0.075 µM); in assay [3], 0.03 µg/mL (≈ 0.075 µM). Moreover, the MIC in [4] turned out to be 0.03 µg/mL (≈ 0.075 µM); in assay [5], 0.007 µg/mL (≈ 0.0175 µM); in assay [6], 0.007 µg/mL (≈ 0.0175 µM); against VRE ATCC 51575, 0.25 µg/mL (≈ 0.625 µM); in the assay on MRSA ATCC 33592 it was 0.125 µg/mL (≈ 0.313 µM); with C. difficile ATCC 43255 it was 0.003 µg/mL (≈ 0.0075 µM). Also, the values for the MIC in assay [7] and in assay [8] were 0.015 µg/mL (≈ 0.0375 µM) and 0.003 µg/mL (≈ 0.0075 µM), respectively.

As for `O=C(Nc1nnc(-c2cccs2)o1)c1ccc(SC(F)(F)F)cc1` [HSGN-148, N-(5-(thiophen-2-yl)-1,3,4-oxadiazol-2-yl)-4-((trifluoromethyl)thio)benzamide], the MIC in assay [1] is 2 µg/mL (≈ 5.39 µM); in the assay on E. faecalis ATCC 29212 it was 4 µg/mL (≈ 10.8 µM); in assay [9], 0.06 µg/mL (≈ 0.162 µM); against S. aureus, 1 µg/mL (≈ 2.69 µM); in assay [2] it was 0.5 µg/mL (≈ 1.35 µM); in [3] it was 0.5 µg/mL (≈ 1.35 µM). Besides, the MIC worked out at 0.5 µg/mL (≈ 1.35 µM) in [4]; 0.5 µg/mL (≈ 1.35 µM) in assay [5]; 0.5 µg/mL (≈ 1.35 µM) in assay [6]; 4 µg/mL (≈ 10.8 µM) with VRE ATCC 51575; 0.5 µg/mL (≈ 1.35 µM) with MRSA ATCC 33592; 0.5 µg/mL (≈ 1.35 µM) in the assay with C. difficile ATCC 43255. Also, the minimal inhibitory concentration (MIC) in [7] and in assay [8] was 0.5 µg/mL (≈ 1.35 µM) throughout. For the same molecule, the Bactericidal/Bacteriostatic entry in the assay with MRSA USA300 cells is reported as “Bactericidal”. Also, in the assay on MRSA USA300 cells, the “Δlog2 CFU/mL” value is given as 4.2.

For the molecule `O=C(Nc1nnc(-c2cccc(F)c2)o1)c1ccc(OC(F)(F)F)cc1` [HSGN-237, N-(5-(3-fluorophenyl)-1,3,4-oxadiazol-2-yl)-4-(trifluoromethoxy)benzamide], the minimal inhibitory concentration (MIC) in [1] was 0.5 µg/mL (≈ 1.36 µM); against E. faecalis ATCC 29212, 1 µg/mL (≈ 2.72 µM); in assay [9], 0.125 µg/mL (≈ 0.34 µM); against S. aureus, 0.5 µg/mL (≈ 1.36 µM); in assay [2], 0.06 µg/mL (≈ 0.163 µM); in [3], 0.125 µg/mL (≈ 0.34 µM). Further, the minimum inhibitory concentration (MIC) was determined as 0.06 µg/mL (≈ 0.163 µM) in assay [4]; 0.03 µg/mL (≈ 0.0817 µM) in assay [5]; 0.03 µg/mL (≈ 0.0817 µM) in [6]; 1 µg/mL (≈ 2.72 µM) with VRE ATCC 51575; 0.5 µg/mL (≈ 1.36 µM) in the assay on MRSA ATCC 33592; 0.03 µg/mL (≈ 0.0817 µM) with C. difficile ATCC 43255. The MIC in [7] and in [8] was 0.03 µg/mL (≈ 0.0817 µM) throughout.
